Publication PMC4900596 (PLoS ONE, 2016)
In brackets after ≈: the same amount, converted by molar mass. Where two headings read alike, the source gives them in different places.

Legend:
[1] = tested on: human peripheral blood mononuclear cells (PBMCs); assay: Cell viability (necrotic changes), calcein-AM/propidium iodide staining, flow cytometry; type: cell-based; settings: for concentration from which a decrease in cell viability was noted: significant vs control (P < 0.05); for IC50: PBMC, human PBMCs, 24 h incubation, unit mM printed in b27 only
Experimental: (§1) PBMCs were isolated from leucocyte-buffy coat collected from blood obtained in Blood Bank in Lodz, Poland. […] The testing was approved by the Bioethics Committee of the University of Lodz No. KBBN-UŁ/I/3/2013. PBMCs were diluted with PBS (1:4) and isolated using LSM (1.077 g/cm^3) by centrifugation at 600 g for 30 min at 20°C. PBMCs were collected, suspended in erythrocyte lysis buffer (150 mM NH4Cl, 10 mM NaHCO3, 1 mM EDTA, pH 7.4) and incubated for 5 min at 20°C. Then, PBS was added immediately, and the cells were centrifuged at 200 g for 15 min at 20°C. The supernatant was decanted, and the cells were washed twice with RPMI with L-glutamine and 10% fetal bovine serum (FBS) at 200 g for 15 min. The cells were resuspended in RPMI medium with L-glutamine, 10% FBS and penicylin-streptomycin (0.5%) and counted in haemocytometer. […] The viability of the cells was over 95%.
The calcein-AM/propidum iodide (PI) viability test is commonly used in toxicity assays to detect cell membrane integrity and to quantify the number of viable and necrotic cells. The calcein-AM is hydrolyzed to calcein, which has a negative charge and penetrates living cells, staining them green. PI is one of the most widely used fluorescent markers for staining of necrotic cells. This compound penetrates the cells, in which membrane was damaged, and binds to DNA. This dye has two positive charges, which prevent it from entering intact cells. […] After the incubation, the samples were centrifuged at 300 g for 5 min at 4°C, the supernatant was decanted, and the cells were supplemented with RPMI with L-glutamine and 10% FBS. The samples were treated with calcein-AM and PI in the final concentrations of 0.1 and 1 μM, respectively and incubated for 15 min at 37°C in total darkness. The analysis was performed by flow cytometry (Becton Dickinson, LSR II). FCM gate on PBMCs has been established for data acquisition, and the fluorescence was measured with excitation/emission maxima of 494/517 nm and 535/617 nm for calcein and PI, respectively. The data were recorded for a total of 10,000 events per sample.

[2] = tested on: human peripheral blood mononuclear cells (PBMCs); assay: Measurement of cell morphology: size (FSC-A) and granularity (SSC-A) by flow cytometry; type: cell-based; settings: for concentration from which changes in PBMCs granularity (SSC-A) occurred / concentration causing statistically significant changes in FSC-A parameter: 24 h incubation; for activity at 10 µM / activity at 50 µM / activity at 100 µM / activity at 250 µM / activity at 500 µM / activity at 5000 µM: Homo sapiens, PBMC, 4 h; for activity at 10 µM: 0.01 mM; for activity at 50 µM: 0.05 mM; for activity at 100 µM: 0.1 mM; for activity at 250 µM: 0.25 mM; for activity at 500 µM: 0.5 mM; for activity at 5000 µM: 5.0 mM; for increase in FSC-A parameter / increase in SSC-A parameter: strongest change, concentration and time not given
Experimental: as §1
The cells were then analyzed using a flow cytometry (LSR II; Becton-Dickinson). FMC gate on PBMCs has been established for data acquisition, and cell size and granularity were evaluated with simultaneous separate detection of low-angle (FSC-A) and right-angle (SSC-A) light scattering. […] The light scattered near the forward direction (low angle) is expected to be proportional to particle size (volume), whereas scattering at the right angle depends on cell granularity (internal properties of the scattered particles).

[3] = tested on: human peripheral blood mononuclear cells (PBMCs); assay: Determination of the level of adenosine-5'-triphosphate (ATP), luciferase bioluminescence; type: cell-based; settings: for concentration from which a decrease in ATP level was observed / ATP level decreased by up to: 24 h; for concentration from which a decrease in ATP level was observed: significant vs control; for IC50: PBMC, human PBMCs, 24 h incubation, unit inferred, read-out: IC50 for changes in ATP level; for ATP level decreased by up to: 10 mM, control = 100%
Experimental: as §1
The level of ATP in the cells was determined by bioluminescence measurement at 560 nm using recombinant luciferase and its substrate, D-luciferin. The high sensitivity of method enables detection of 0.1 pM ATP. The reaction proceeds in two stages. In the first step, as a result of the reaction of ATP with luciferin, a complex of adenosine with luciferin is formed with simultaneous releasing of phosphate group. Secondly the complex reacts with oxygen resulting in a formation of oxyluciferin and adenosine monophosphate (AMP). Oxyluciferin returning from its excited state to the base state emits luminescence. The reaction requires the presence of magnesium ions.

PBMCs = settings: cited from earlier work
[4] = tested on: choriocarcinoma cell line; settings: MTT test; cited from earlier work
[5] = tested on: HUVEC cell line, human kidney cells 293, placenta JEG3 cells; settings: MTT; cited from earlier work
[6] = read-out: FSC-A (percent of control)
[7] = read-out: SSC-A (percent of control)

SMILES | concentration from which a decrease in cell viability was noted ([1]; 24 h) [mM] | IC50 [1] [mM] | concentration from which changes in PBMCs granularity (SSC-A) occurred [2] [mM] | activity at 10 µM [2, 6] [%] | activity at 10 µM [2, 7] [%] | activity at 50 µM [2, 6] [%] | activity at 50 µM [2, 7] [%] | activity at 100 µM [2, 6] [%] | activity at 100 µM [2, 7] [%] | activity at 250 µM [2, 6] [%] | activity at 250 µM [2, 7] [%] | activity at 500 µM [2, 6] [%] | activity at 500 µM [2, 7] [%] | activity at 5000 µM [2, 6] [%] | activity at 5000 µM [2, 7] [%] | concentration from which a decrease in ATP level was observed [3] [mM] | IC50 [3] [mM] | PBMCs viability decreased by up to ([1]; 10 mM, 24 h, control = 100%) [%] | concentration causing statistically significant changes in FSC-A parameter [2] [mM] | increase in FSC-A parameter [2] [%] | other results
O=P(O)(O)CO [Hydroxy-methylphosphonic acid, hydroxymethylphosphonic acid] | ≥ 7.5 | > 10 | ≥ 5 | 100 ± 2 | 96.8 ± 4.77 | 100 ± 1.84 | 97.6 ± 4.71 | 100 ± 1.91 | 99.4 ± 1.17 | 101 ± 3.68 | 100 ± 3.33 | 100 ± 2.4 | 101 ± 2.05 | 100 ± 2.94 | 102 ± 2.14 | ≥ 5 | > 10 |  |  |  | 
O=C(O)CNCP(=O)(O)O [Glyphosate, N-phosphonomethylglycine, reference compound] |  | > 10 | ≥ 0.5 | 102 ± 3.55 | 99.2 ± 4.71 | 102 ± 2.94 | 99.7 ± 7.75 | 102 ± 2.38 | 101 ± 9.59 | 102 ± 4.69 | 101 ± 8.1 | 102 ± 3.89 | 102 ± 5.94 | 101 ± 3 | 104 ± 7.27 | ≥ 5 | 9.6 |  |  |  | IC50 (cytotoxic effects) (PBMCs): 56.4 µg/mL (≈ 334 µM); decrease in cell viability ([1]; 10 mM, 24 h, control = 100%): 2.7%; EC50 [4]: 16 mM; concentration significantly affecting cell viability [5]: 100 µM
O=C(O)CN(CC(=O)O)CP(=O)(O)O [PMIDA, N-(phosphonomethyl)iminodiacetic acid] | ≥ 5 | 7.9 | 10 | 100 ± 2.09 | 97.5 ± 4.97 | 100 ± 2.21 | 98.1 ± 5.81 | 100 ± 3.36 | 99.2 ± 5.42 | 100 ± 2.65 | 99.3 ± 4.63 | 100 ± 2.65 | 99.8 ± 6.3 | 101 ± 4.59 | 105 ± 5.12 | ≥ 5 | 6.1 | 3.4 | 10 | 13 | increase in SSC-A parameter [2]: 150%; ATP level decreased by up to [3]: 2.1%
CN(CC(=O)O)CP(=O)(O)O [N-methylglyphosate] | ≥ 7.5 | > 10 | ≥ 5 | 102 ± 3.97 | 101 ± 4.68 | 102 ± 2.66 | 101 ± 4.81 | 103 ± 3.27 | 102 ± 3.57 | 101 ± 5.72 | 102 ± 4.73 | 101 ± 4.66 | 102 ± 8.82 | 100 ± 4.82 | 102 ± 7.27 | ≥ 0.5 | > 10 |  |  |  | 
NCP(=O)(O)O [AMPA, aminomethylphosphonic acid] | ≥ 0.5 | > 10 | ≥ 5 | 101 ± 4.61 | 101 ± 3.75 | 101 ± 4.45 | 100 ± 3.47 | 101 ± 5.04 | 101 ± 2.26 | 101 ± 3.96 | 101 ± 5.74 | 102 ± 3.93 | 101 ± 5.35 | 99.6 ± 5.18 | 102 ± 4.76 | ≥ 5 | > 10 |  |  |  | 
O=P(O)(O)CNCP(=O)(O)O [Bis-(phosphonomethyl)amine, bis-(phosphonomethyl)amine] | ≥ 7.5 | 8.7 | ≥ 7.5 | 101 ± 2.38 | 98.4 ± 2.94 | 99.7 ± 2.54 | 100 ± 2.55 | 99.6 ± 2.04 | 100 ± 3.68 | 100 ± 2.68 | 100 ± 2 | 101 ± 3.34 | 101 ± 1.12 | 100 ± 3.88 | 103 ± 3.17 | ≥ 0.5 | 5.3 | 37.2 | ≥ 7.5 | 9 | increase in SSC-A parameter [2]: 92%; ATP level decreased by up to [3]: 3.4%
